“Also recorded” adds a separate entry of the source.
What was measured:
STING1 locus in PSCs = experiment: RNP/AAV6 gene targeting at STING1 locus (V155M) in PSCs; format: cell-based, human
Protocol: In comparison, the untreated cells had around 30% INDELs (FIG. 4D-E).
For this, we tested gene targeting at the STING1 locus to introduce a point mutation (V155M) associated with an autoinflammatory disease called STING-associated vasculopathy with onset in infancy (SAVI)^86 (FIG. 12a). […] To test the feasibility of building a primary cell SAVI model, we next performed the STING1 gene targeting in human CD34+ HSPCs.
PSC culture and genome editing. Gene editing experiments were performed with three PSC lines: H9 embryonic stem cells (ESC) (WiCell) and the previously described 1205-4 and 1208-2 iPS cell lines^106. PSCs were maintained in feeder free conditions on Matrigel (corning, cat: 354277) coated plates in mTeSR1 medium ([…] technologies, cat: 85850). For gene editing, 24 h prior to nucleofection PSCs were pretreated with 10 μM of Y27632 (Cayman Chemical, cat: 10005583). […] PSCs were dissociated into single cells using Accutase (Innovative Cell Technologies, cat: AT104). […] Resuspended cells were added to one well of a 16-well Nucleocuvette Strip (Lonza) and nucleofection was performed in the 4D nucleofector (Lonza) using the program, CA137. […] Gene targeting efficiency was analyzed at 4-6 days post-editing.
ICE analysis for quantification of gene editing.

CCR5 locus in PSCs = experiment: Single cell cloning of PSCs gene targeted at CCR5 locus; format: cell-based, human
Protocol: Allelic gene targeting efficiency was unaffected by pretreatment with AZD7648 with or without post treatment when compared to the corresponding controls.
For single cell cloning, gene targeted PSCs were plated at a density of 250 cells per well of a 6-well plate in mTeSR1 medium supplemented with 1× CloneR™2 ([…] technologies, cat: 100-0691) and incubated at 37° C. for 2 days. After 2 days, medium was switched to fresh mTeSR1 medium supplemented with 1× CloneR™2. 2 days later, the cells were switched to and maintained in mTeSR1 medium with daily media changes. At D7-D10, single cell colonies were picked by scraping and were then propagated individually. Gene targeting was assessed in single cell clones by ddPCR as mentioned above and by PCR amplifying the region spanning the knock-in to determine the frequency of mono-, bi-allelic and non-targeted clones.

[1] = tested on: top off-target sites of HBB, CCR5 and HBA1 gRNAs in HSPCs; experiment: NGS off-target analysis in gene targeted HSPCs; format: cell-based, human
Excerpt: For this, we assessed the previously characterized top off-target site for CCR5 (OT39)^66, HBB (OT1)^72 and HBA1 (OT1)74 gRNAs in the gene targeted HSPCs using next generation sequencing (NGS). […] Blocking of specific off-target breaks is possible, however, if there were biologically important reasons to do so^79, 80. […] Thus, gene editing with AZD treatment increases the frequency alleles with WT sequence and deletion INDELs without the HDR donor template.
NGS analysis for off-target effects. For this, we used commercially available Amplicon-EZ next generation sequencing service from AZENTA, Inc. Previously characterized top off-target site for CCR5 (OT39), HBB (OT1) and HBA1 (OT1) gRNAs were analyzed. PCR was used to amplify a 350-450 bp region encompassing the off-target sites from genomic DNA of the gene targeted HSPCs. Following are the primers used for PCR,
Following PCR, the amplicons were purified using Genejet PCR purification kit (Thermo Fisher Scientific, cat: K0701). The samples were normalized to a concentration of 20 ng/μl and 25 μl volume was submitted for Amplicon-EZ NGS service (AZENTA, Inc). DNA library preparations, sequencing reactions, and bioinformatics analysis were conducted at AZENTA, Inc. DNA Library Preparation was done using NEBNext Ultra DNA Library Prep kit following the manufacturer's recommendations (NEB). […] DNA libraries were validated on the Agilent TapeStation (Agilent Technologies) and were quantified using Qubit 2.0 Fluorometer (Invitrogen) and multiplexed in equal molar mass. […] The raw Illumina reads were checked for adapters and quality via FastQC. The raw Illumina sequence reads were trimmed of their adapters and nucleotides with poor quality using Trimmomatic v.0.36. Paired sequence reads were then merged to form a single sequence if the forward and reverse reads were able to overlap. The merged reads were aligned to the reference sequence and variant detection was performed using AZENTA proprietary Amplicon-EZ program. INDEL frequency at the target site was quantified and plotted as the frequency of reads with insertions and deletions.

T cells = experiment: Viable cell count of CCR5 gene targeted T cells; format: cell-based, human
Protocol: (FIG. 34d). Next, we tested the effect of compound treatment when titrating down the AAV6 donor amounts for gene targeting at the CCR5 locus. […] For this, we assessed the CD19-CAR knock-in at the TRAC gene locus in T cells using a previously reported gene editing strategy^87 (FIG. 14c).
Cell viability measurement. MTT assay was used for measuring the gene edited PSC viability. […] After this incubation, MTT was removed, and cells were lysed using 100 μl of lysis buffer (0.1N HCl and 0.5% SDS in isopropanol). After lysis, absorbance was measured at 570 nm with 650 nm as the reference using a SpectraMax M3 plate reader (Molecular devices). The absorbance values were used to calculate the cell viability of gene edited cells as a percentage relative to the mock cells. […] Viable cell counts were represented as percentage relative to the mock or untreated cells as indicated.

human primary cells = experiment: Gene targeting across different genomic loci and primary cell types (summary statements); format: cell-based; settings: in some examples
Excerpt: Nuclease-based genome editing can result in either site-specific insertions/deletions (INDELs) or targeted integrations depending on which pathway of natural DNA double-strand break repair is harnessed: non-homologous end-joining (NHEJ), microhomology mediated end-joining (MMEJ) or homology-directed repair (HDR).

Cc1cc2ncnn2cc1Nc1ncc2c(n1)n(C1CCOCC1)c(=O)n2C [AZD7648, 7-methyl-2-((7-methyl-[1,2,4]triazolo[l,5-a]pyridin-6-yl)amino)-9-(tetrahydro-2H-pyran-4-yl)-7,9-dihydro-8H-purin-8-one]
INDELs after gene targeting (STING1 locus in PSCs; active gRNA (sg3)): without INDELs; also recorded: no INDELs | INDELs after gene targeting (STING1 locus in PSCs; seemingly inactive gRNA (sg5), 0.5 μM): without indels; also recorded: no INDELs | clones with bi-allelic knock-in (CCR5 locus in PSCs; 0.1 μM): 60% | clones with bi-allelic knock-in (CCR5 locus in PSCs; 0.5 μM, untreated 30%): 90% | reads with INDELs at off-target site ([1]; OT1 site for HBA1 gRNA, untreated […]): around 0.5% | reads with INDELs at off-target site ([1]; OT1 site for HBB gRNA, 0.5 μM, untreated 1%): about 3% | reads with INDELs at off-target site ([1]; OT39 site for CCR5 gRNA, untreated below detection limit): 0.03% | viable cell count (T cells; 0.5 μM, different AAV6 MOIs): very little drop in viable cell count | viable cell count vs mock and untreated controls (T cells; 72 h post-gene targeting, different concentrations): minimal drop in viable cell count | increase in HDR (human primary cells): up to 50 fold
